The results in this text go back to patent US10435376B2, “Derivatives of 1H-imidazole-4,5-dicarboxamide and use thereof in preparation of anticoccidial drugs” (GUANGZHOU INSIGHTER BIOTECHNOLOGY CO., LTD., priority 2015, dated 2019).

SMILES strings stand for the structures.

Holding throughout (assay type): in vivo
The subject of assay [1] is Eimeria tenella. Kind of assay: Inhibitory effects of the derivatives on Eimeria tenella of chicken (60 ppm in feed). Particulars: for responders at 60 ppm, 60 µg/mL / response vs control in vivo at 60 ppm, 60 µg/mL: Eimeria tenella, 168 h; for responders at 60 ppm, 60 µg/mL / response vs control in vivo at 60 ppm, 60 µg/mL / Score (bloody stool score): broilers, 60 ppm in feed, 250,000 E. tenella oocysts; for responders at 60 ppm, 60 µg/mL: 7 days after inoculation, read-out: Survival rate (%); for response vs control in vivo at 60 ppm, 60 µg/mL: relative to group 1 (not infected, not treated), read-out: Relative weight gain (%); for Score (bloody stool score): 5 days after inoculation; for anticoccidial activity in view of survival rate, bloody stool score and relative weight gain: 60 ppm, E. tenella. The text has this: (§1) One-day-old yellow-feather fast-growing broilers were raised in a coccidia-free environment, and divided into groups for trial at the age of 18 days when no coccidian oocysts were detected by microscopy in their faeceas. Weak or overweight broilers were removed, and healthy broilers were divided into 30 groups with 50 broilers in each group and weight difference between each two broilers was below 20 g. Groups 1 and 2 were respectively a control group that the broilers were neither infected nor treated, and a control group that the broilers were infected but not treated. Groups 3 to 30 were respectively administrated with different derivatives. The broilers were given ad libitum access to feed and water when the feed was added with different medicines according to Table 1 at the day the broilers were divided. 24 Hours after the trial began, 250,000 sporulated Eimeria tenella oocysts were inoculated via an oral gavage into the crop of every broiler in each group except group 1. Bloody stool score was measured 5 days after the inoculation and the trial was ended 7 days after the inoculation. Relative weight gain (%), survival rate (%) and the bloody stool score were evaluated.
(§2) Bloody stool score: 0, no bloody stool was observed; 1, bloody stool below 25%; 2, 25 to 50% of bloody stool; 3, 50 to 75% of bloody stool; and 4, bloody stool over 75%.
(§3) Relative weight gain (%): The broilers were weighed at the beginning and the end of the trial to calculate the average weight gain and relative weigh gain. Relative weight gain=(average weight gain of each group/average weight gain of group 1)×100%.
(§4) Deaths of the broilers: Necropsy was performed and the amount of dead broilers in each group was recorded to calculate the survival rate. Survival rate=(total amount of the broilers in each group−amount of deaths caused by coccidial infection)/total amount of the broilers in each group×100%.

The subject of assay [2] is Eimeria necatrix. The experiment in a line: Inhibitory effects of the derivatives on Eimeria necatrix of chicken. Particulars: for responders at 60 ppm, 60 µg/mL / response vs control in vivo at 60 ppm, 60 µg/mL: Eimeria necatrix, 168 h; for responders at 60 ppm, 60 µg/mL: read-out: Survival rate (%); for response vs control in vivo at 60 ppm, 60 µg/mL: feed or water, read-out: Relative weight gain (%); for response vs control in vivo at 60 ppm, 60 µg/mL / Score (bloody stool score): broilers, 60 ppm in feed, 100,000 E. necatrix oocysts; for Score (bloody stool score): 5 days after inoculation; for anticoccidial activity in view of survival rate, bloody stool score and relative weight gain: 60 ppm, E. necatrix. As for the experimental part: as §2, §3, §4
as §1, with “into 10” for “into 30”, “to 10” for “to 30”, “Table 4” for “Table 1”, “began, 100,000” for “began, 250,000”, “Eimeria necatrix” for “Eimeria tenella”, “were evaluated (according to embodiment 2).” for “were evaluated.”

The subject of assay [3] is Eimeria acervulina. Kind of assay: Inhibitory effects of the derivatives on Eimeria acervulina of chicken. Particulars: for anticoccidial activity in view of survival rate, relative weight gain and feed conversion ratio: 60 ppm, E. acervulina; for responders at 60 ppm, 60 µg/mL / response vs control in vivo at 60 ppm, 60 µg/mL: Eimeria acervulina, 168 h; for responders at 60 ppm, 60 µg/mL / response vs control in vivo at 60 ppm, 60 µg/mL / Feed conversion ratio: broilers, 60 ppm in feed, 400,000 E. acervulina oocysts; for responders at 60 ppm, 60 µg/mL: 7 days after inoculation, read-out: Survival rate (%); for response vs control in vivo at 60 ppm, 60 µg/mL: feed or water, read-out: Relative weight gain (%). As for the experimental part:
as §3, §4
One-day-old yellow-feather fast-growing broilers were raised in a coccidia-free environment, and divided into groups for trial at the age of 18 days when no coccidian oocysts were detected by microscopy in their faeceas. Weak or overweight broilers were removed, and healthy broilers were divided into 10 groups with 50 broilers in each group and weight difference between each two broilers was below 20 g. Groups 1 and 2 were respectively a control group that the broilers were neither infected nor treated, and a control group that the broilers were infected but not treated. Groups 3 to 10 were respectively administrated with different derivatives. The broilers were given ad libitum access to feed and water when the feed was added with different medicines according to Table 3 at the day the broilers were divided. 24 Hours after the trial began, 400,000 sporulated Eimeria acervulina oocysts were inoculated via an oral gavage into the crop of every broiler in each group except group 1. The trial was ended 7 days after the inoculation. Relative weight gain (%), survival rate (%) and feed conversion ratio were evaluated.

With `CN1CCN(C(=O)c2nc[nH]c2C(=O)N2CCN(C)CC2)CC1` [IST15008, (1H-imidazole-4,5-diyl) bis((4-methylpiperazin-1-yl)methanone)], in assay [1], the responders at 60 ppm, 60 µg/mL is 100%; the response vs control in vivo at 60 ppm, 60 µg/mL was determined as 89.7%; the “Score (bloody stool score)” value is listed as 2 (25 to 50% of bloody stool). Also, in assay [2], the responders at 60 ppm, 60 µg/mL stood at 100%; the response vs control in vivo at 60 ppm, 60 µg/mL is 81.2%; the “Score (bloody stool score)” value was 3 (50 to 75% of bloody stool).

Regarding `NC(=O)c1ncn(Cc2ccc(Cl)cc2)c1C(N)=O` [IST15037, 1-(4-chlorobenzyl)-1H-imidazole-4,5-dicarboxamide], in assay [3], the “anticoccidial activity in view of survival rate, relative weight gain and feed conversion ratio” value is on record as “highest anticoccidial activities”; the responders at 60 ppm, 60 µg/mL was determined as 100%; the response vs control in vivo at 60 ppm, 60 µg/mL was 98.5%; the Feed conversion ratio came to 2.148. Also, in assay [1], the “anticoccidial activity in view of survival rate, bloody stool score and relative weight gain” value was “highest anticoccidial activities”; the responders at 60 ppm, 60 µg/mL came to 100%; the response vs control in vivo at 60 ppm, 60 µg/mL worked out at 99.2%; the “Score (bloody stool score)” value was 0. Also, in assay [2], the “anticoccidial activity in view of survival rate, bloody stool score and relative weight gain” value is listed as “highest anticoccidial activities”; the responders at 60 ppm, 60 µg/mL came out at 100%; the response vs control in vivo at 60 ppm, 60 µg/mL stood at 98.9%; the “Score (bloody stool score)” value is recorded as 0.

Take `CCCn1cnc(C(N)=O)c1C(N)=O` [IST15038, 1-propyl-1H-imidazole-4,5-dicarboxamide]: in assay [3], the responders at 60 ppm, 60 µg/mL is 100%; the response vs control in vivo at 60 ppm, 60 µg/mL amounted to 73.8%; the Feed conversion ratio was found to be 2.135. Also, in assay [1], the responders at 60 ppm, 60 µg/mL is 100%; the response vs control in vivo at 60 ppm, 60 µg/mL worked out at 82.1%; the “Score (bloody stool score)” value is listed as 3 (50 to 75% of bloody stool). Further, in assay [2], the responders at 60 ppm, 60 µg/mL is 100%; the response vs control in vivo at 60 ppm, 60 µg/mL turned out to be 79.5%; the “Score (bloody stool score)” value is recorded as 2 (25 to 50% of bloody stool).

In the case of `NC(=O)c1ncn(Cc2ccccc2F)c1C(N)=O` [IST15043, 1-(2-fluorobenzyl)-1H-imidazole-4,5-dicarboxamide], in assay [3], the “anticoccidial activity in view of survival rate, relative weight gain and feed conversion ratio” value is recorded as “highest anticoccidial activities”; the responders at 60 ppm, 60 µg/mL was 100%; the response vs control in vivo at 60 ppm, 60 µg/mL was 99.4%; the Feed conversion ratio turned out to be 2.139. For the same compound, in assay [1], the “anticoccidial activity in view of survival rate, bloody stool score and relative weight gain” value is recorded as “highest anticoccidial activities”; the responders at 60 ppm, 60 µg/mL is 100%; the response vs control in vivo at 60 ppm, 60 µg/mL came out at 98.7%; the “Score (bloody stool score)” value is listed as 0. Besides, in assay [2], the “anticoccidial activity in view of survival rate, bloody stool score and relative weight gain” value is given as “highest anticoccidial activities”; the responders at 60 ppm, 60 µg/mL turned out to be 100%; the response vs control in vivo at 60 ppm, 60 µg/mL was 102%; the “Score (bloody stool score)” value is given as 0.

For the compound `NC(=O)c1ncn(Cc2ccc([N+](=O)[O-])cc2)c1C(N)=O` [IST15045, 1-(4-nitrobenzyl)-1H-imidazole-4,5-dicarboxamide], in assay [3], the “anticoccidial activity in view of survival rate, relative weight gain and feed conversion ratio” value is listed as “highest anticoccidial activities”; the responders at 60 ppm, 60 µg/mL is 100%; the response vs control in vivo at 60 ppm, 60 µg/mL came out at 98.7%; the Feed conversion ratio stood at 2.158. For the same compound, in assay [1], the “anticoccidial activity in view of survival rate, bloody stool score and relative weight gain” value is given as “highest anticoccidial activities”; the responders at 60 ppm, 60 µg/mL turned out to be 100%; the response vs control in vivo at 60 ppm, 60 µg/mL worked out at 104%; the “Score (bloody stool score)” value amounted to 0. For the same compound, in assay [2], the “anticoccidial activity in view of survival rate, bloody stool score and relative weight gain” value was “highest anticoccidial activities”; the responders at 60 ppm, 60 µg/mL is 100%; the response vs control in vivo at 60 ppm, 60 µg/mL turned out to be 102%; the “Score (bloody stool score)” value came out at 0.

In the case of `NC(=O)c1ncn(Cc2ccc(Oc3ccc(Cl)cc3)cc2)c1C(N)=O` [IST15167, 1-(4-(4-chlorophenoxy)benzyl)-1H-imidazole-4,5-dicarboxamide], in assay [1], the responders at 60 ppm, 60 µg/mL is 100%; the response vs control in vivo at 60 ppm, 60 µg/mL is 82.7%; the “Score (bloody stool score)” value is recorded as 3 (50 to 75% of bloody stool). Further, in assay [2], the responders at 60 ppm, 60 µg/mL was determined as 100%; the response vs control in vivo at 60 ppm, 60 µg/mL came out at 75.8%; the “Score (bloody stool score)” value is 3 (50 to 75% of bloody stool).
